Like-named read-outs stand apart in the source and are kept apart here.
System: BT474 breast cancer cells
Assay: BT474 Four (4) Day Cell Viability Assay
Format: cell-based
Details: Homo sapiens, BT-474, 96 h, BT474, 4 days, read-out: cellular viability; for viability at 2.5 µM: 32661 2.5 μM; for viability at 5 µM: 32661 5 μM
Description: BT474 breast cancer cells that are Estrogen Receptor Positive and HER2+ were grown in 5% cFBS. 5,000 cells were seeded into each well of a 96-well plate and treated with escalating doses of lapatinib, fulvestrant, and 32661.

[1] = fulvestrant 3333.0 nM, lapatinib 1666.7 nM

Q: How did the viability at 2.5 µM [1] turn out when FC(F)(F)c1ccc2c(SCCCCCCn3cnc(CN4CCOCC4)c3)ccnc2c1 [Compound 0032661, 4-[[1-[6-[[7-(trifluoromethyl)-4-quinolyl]sulfanyl]hexyl]imidazol-4-yl]methyl]morpholine] was run?
A: 16%

Q: What about the viability at 2.5 µM (fulvestrant 3333.0 nM, lapatinib 3333.0 nM) of the same molecule?
A: 1%

Q: And the viability at 5 µM (fulvestrant 0.0 nM, lapatinib 0.0 nM)?
A: 95%

Q: What about the viability at 5 µM (fulvestrant 0.0 nM, lapatinib 6.9 nM) of the same molecule?
A: 87%

Q: What about the viability at 5 µM (fulvestrant 0.0 nM, lapatinib 20.6 nM) of the same molecule?
A: 84%

Q: And the viability at 5 µM (fulvestrant 0.0 nM, lapatinib 61.7 nM)?
A: 87%

Q: What about the viability at 5 µM (fulvestrant 0.0 nM, lapatinib 185.2 nM) of the same molecule?
A: 79%

Q: And the viability at 5 µM (fulvestrant 0.0 nM, lapatinib 555.6 nM)?
A: 67%

Q: And the viability at 5 µM (fulvestrant 0.0 nM, lapatinib 1666.7 nM)?
A: 51%

Q: What about the viability at 5 µM (fulvestrant 0.0 nM, lapatinib 3333.0 nM) of the same molecule?
A: 16%

Q: What about the viability at 5 µM (fulvestrant 6.9 nM, lapatinib 0.0 nM) of the same molecule?
A: 93%

Q: What about the viability at 5 µM (fulvestrant 6.9 nM, lapatinib 6.9 nM) of the same molecule?
A: 83%

Q: And the viability at 5 µM (fulvestrant 6.9 nM, lapatinib 20.6 nM)?
A: 82%

Q: And the viability at 5 µM (fulvestrant 6.9 nM, lapatinib 61.7 nM)?
A: 82%

Q: And the viability at 5 µM (fulvestrant 6.9 nM, lapatinib 185.2 nM)?
A: 77%

Q: What about the viability at 5 µM (fulvestrant 6.9 nM, lapatinib 555.6 nM) of the same molecule?
A: 65%

Q: What about the viability at 5 µM (fulvestrant 6.9 nM, lapatinib 1666.7 nM) of the same molecule?
A: 42%

Q: And the viability at 5 µM (fulvestrant 6.9 nM, lapatinib 3333.0 nM)?
A: 14%

Q: What about the viability at 5 µM (fulvestrant 20.6 nM, lapatinib 0.0 nM) of the same molecule?
A: 91%

Q: What about the viability at 5 µM (fulvestrant 20.6 nM, lapatinib 6.9 nM) of the same molecule?
A: 80%

Q: And the viability at 5 µM (fulvestrant 20.6 nM, lapatinib 20.6 nM)?
A: 79%

Q: What about the viability at 5 µM (fulvestrant 20.6 nM, lapatinib 61.7 nM) of the same molecule?
A: 78%

Q: What about the viability at 5 µM (fulvestrant 20.6 nM, lapatinib 185.2 nM) of the same molecule?
A: 71%

Q: And the viability at 5 µM (fulvestrant 20.6 nM, lapatinib 555.6 nM)?
A: 60%

Q: What about the viability at 5 µM (fulvestrant 20.6 nM, lapatinib 1666.7 nM) of the same molecule?
A: 39%

Q: What about the viability at 5 µM (fulvestrant 20.6 nM, lapatinib 3333.0 nM) of the same molecule?
A: 11%

Q: What about the viability at 5 µM (fulvestrant 61.7 nM, lapatinib 0.0 nM) of the same molecule?
A: 90%

Q: And the viability at 5 µM (fulvestrant 61.7 nM, lapatinib 6.9 nM)?
A: 80%

Q: What about the viability at 5 µM (fulvestrant 61.7 nM, lapatinib 20.6 nM) of the same molecule?
A: 78%

Q: What about the viability at 5 µM (fulvestrant 61.7 nM, lapatinib 61.7 nM) of the same molecule?
A: 76%

Q: And the viability at 5 µM (fulvestrant 61.7 nM, lapatinib 185.2 nM)?
A: 67%

Q: And the viability at 5 µM (fulvestrant 61.7 nM, lapatinib 555.6 nM)?
A: 60%

Q: What about the viability at 5 µM (fulvestrant 61.7 nM, lapatinib 1666.7 nM) of the same molecule?
A: 39%

Q: And the viability at 5 µM (fulvestrant 61.7 nM, lapatinib 3333.0 nM)?
A: 11%

Q: And the viability at 5 µM (fulvestrant 185.2 nM, lapatinib 0.0 nM)?
A: 90%

Q: What about the viability at 5 µM (fulvestrant 185.2 nM, lapatinib 6.9 nM) of the same molecule?
A: 78%

Q: And the viability at 5 µM (fulvestrant 185.2 nM, lapatinib 20.6 nM)?
A: 78%

Q: And the viability at 5 µM (fulvestrant 185.2 nM, lapatinib 61.7 nM)?
A: 76%

Q: What about the viability at 5 µM (fulvestrant 185.2 nM, lapatinib 185.2 nM) of the same molecule?
A: 67%

Q: What about the viability at 5 µM (fulvestrant 185.2 nM, lapatinib 555.6 nM) of the same molecule?
A: 56%

Q: What about the viability at 5 µM (fulvestrant 185.2 nM, lapatinib 1666.7 nM) of the same molecule?
A: 35%

Q: And the viability at 5 µM (fulvestrant 185.2 nM, lapatinib 3333.0 nM)?
A: 10%

Q: And the viability at 5 µM (fulvestrant 555.6 nM, lapatinib 0.0 nM)?
A: 86%

Q: What about the viability at 5 µM (fulvestrant 555.6 nM, lapatinib 6.9 nM) of the same molecule?
A: 79%

Q: And the viability at 5 µM (fulvestrant 555.6 nM, lapatinib 20.6 nM)?
A: 74%

Q: And the viability at 5 µM (fulvestrant 555.6 nM, lapatinib 61.7 nM)?
A: 72%

Q: And the viability at 5 µM (fulvestrant 555.6 nM, lapatinib 185.2 nM)?
A: 56%

Q: What about the viability at 5 µM (fulvestrant 555.6 nM, lapatinib 555.6 nM) of the same molecule?
A: 48%

Q: What about the viability at 5 µM (fulvestrant 555.6 nM, lapatinib 1666.7 nM) of the same molecule?
A: 29%

Q: And the viability at 5 µM (fulvestrant 555.6 nM, lapatinib 3333.0 nM)?
A: 6%

Q: What about the viability at 5 µM (fulvestrant 1666.7 nM, lapatinib 0.0 nM) of the same molecule?
A: 81%

Q: What about the viability at 5 µM (fulvestrant 1666.7 nM, lapatinib 6.9 nM) of the same molecule?
A: 60%

Q: And the viability at 5 µM (fulvestrant 1666.7 nM, lapatinib 20.6 nM)?
A: 60%

Q: And the viability at 5 µM (fulvestrant 1666.7 nM, lapatinib 61.7 nM)?
A: 48%

Q: And the viability at 5 µM (fulvestrant 1666.7 nM, lapatinib 185.2 nM)?
A: 36%

Q: What about the viability at 5 µM (fulvestrant 1666.7 nM, lapatinib 555.6 nM) of the same molecule?
A: 29%

Q: What about the viability at 5 µM (fulvestrant 1666.7 nM, lapatinib 1666.7 nM) of the same molecule?
A: 18%

Q: And the viability at 5 µM (fulvestrant 1666.7 nM, lapatinib 3333.0 nM)?
A: 1%

Q: And the viability at 5 µM (fulvestrant 3333.0 nM, lapatinib 0.0 nM)?
A: 56%

Q: What about the viability at 5 µM (fulvestrant 3333.0 nM, lapatinib 6.9 nM) of the same molecule?
A: 35%

Q: What about the viability at 5 µM (fulvestrant 3333.0 nM, lapatinib 20.6 nM) of the same molecule?
A: 29%

Q: What about the viability at 5 µM (fulvestrant 3333.0 nM, lapatinib 61.7 nM) of the same molecule?
A: 21%

Q: And the viability at 5 µM (fulvestrant 3333.0 nM, lapatinib 185.2 nM)?
A: 22%

Q: What about the viability at 5 µM (fulvestrant 3333.0 nM, lapatinib 555.6 nM) of the same molecule?
A: 19%

Q: And the viability at 5 µM [1]?
A: 11%

— patent US10472352B2, “Rac inhibitors” (Geneyus LLC, priority 2017, dated 2019)
